Measurements taken from the supplement of paper PMC10307832.

Columns and labels:
Assay in all cases: relative viability (nuclei count vs DMSO), 5 days (fraction); higher = more cells survive
Halofuginone = compound: O=C(C[C@H]1NCCC[C@@H]1O)Cn1cnc2cc(Br)c(Cl)cc2c1=O (racemic) [Halofuginone]
Method in brief: (§1)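 Following overnight incubation at 37 °C, lung cancer cell lines in 1536-well plates were pinned with five library-drug doses (not always all listed) in √10 steps on vehicle-anchored plates. The cells then spent 5 days without medium change before a combined fix, permeabilisation and Hoechst stain, 4× imaging and MetaXpress nuclear counts. Viability is the treated-to-vehicle ratio of nuclei, taken as the median across plates. Only plates with control CV below 25% and at least one doubling passed.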

Cediranib = compound: COc1cc2c(Oc3ccc4[nH]c(C)cc4c3F)ncnc2cc1OCCCN1CCCC1 [Cediranib]
Method in brief: as §1

Decitabine = compound: Nc1ncn([C@H]2C[C@H](O)[C@@H](CO)O2)c(=O)n1 [Decitabine]
Method in brief: as §1

Work on UMC-11 yielded a relative viability (Halofuginone; 0.001 µM) of 1.12, a relative viability (Halofuginone; 0.003162 µM) of 0.984 and a relative viability (Halofuginone; 0.01 µM) of 0.97. The relative viability (Halofuginone; 0.03162 µM) was 0.901, the relative viability (Halofuginone; 0.1 µM) was 0.702 and the relative viability (Cediranib; 0.04 µM) was 0.989. The relative viability (Cediranib; 0.1265 µM) was 0.748, the relative viability (Cediranib; 0.4 µM) was 0.88 and the relative viability (Cediranib; 1.265 µM) was 0.69. The relative viability (Cediranib; 4 µM) was 0.92, the relative viability (Decitabine; 0.04 µM) was 0.914 and the relative viability (Decitabine; 0.1265 µM) was 0.8. The relative viability (Decitabine; 0.4 µM) was 0.536, the relative viability (Decitabine; 1.265 µM) was 0.387 and the relative viability (Decitabine; 2 µM, anchor plate) was 0.638. For the same cell line, the relative viability (Decitabine; 4 µM) was 0.419.
